From US20150051202A1, “TRIAZOLOPYRAZINE DERIVATIVES” (Merck Patent GmbH, priority 2012, published 2015)

Legend:
GCN2 = GCN2 (Homo sapiens, UniProt Q9P2K8); assay: GCN2 enzyme assay (TR-FRET Lanthascreen, GFP-eIF2alpha substrate); format: biochemical; conditions: for GCN2 (enzyme assay) % at 10 μM: 100% corresponds to zero effect, −50% corresponds to IC50
From the text: GCN2: Assay Principle & Conditions
This assay can quantificate the activity of the serin kinase GCN2 (general control non-derepressible-2).
This kinase is involved in the stress metabolism of cells. It is activated upon starvation (amino acid depletion). Its natural substrate is eIF2a (eukaryotic initiation factor 2 alpha subunit), a translation factor, which gets activated (phosphorylated) by GCN2 in case of an amino acid bottleneck in the cells. This in turn leads to a halt of the protein synthesis. Inhibition of GCN2 results in stopping this mechanism: The cell can not stop protein production upon “starvation” stress.
The assay is run in two steps: the enzymatic reaction and the detection step. In the first step GCN2 is incubated with 10 μM ATP and 80 nM of the GFP-labelled substrate eIF2alpha at room temperature.
The enzymatic reaction is stopped by addition of EDTA. The amount of phosphorylated eIF2alpha is determined by TR-FRET (Lanthascreen): A complex is formed consisting of antibody and GFP labelled phospho-eIF2a, which allows a FRET upon exitation at 340 nm.
Final Concentrations in the Enzymatic Reaction • Hepes, pH 7.0 50 mM • MgCl2 10 mM • MnCl2 5 mM • BSA 0.1% • DMSO 1% • ATP 10 uM • DTT 2 mM • GFP-eIF2a 80 nM (substrate) • GCN2 30 nM (enzyme)

SYK = target: T1, SYK (Homo sapiens, UniProt P43405); assay: SYK enzyme assay (Flash plate assay / Caliper mobility shift assay); format: biochemical; conditions: for SYK (enzyme assay) % at 3 μM: 100% corresponds to zero effect, −50% corresponds to IC50
T1 construct: purchased BPS Bioscience, CA, USA
Protocol: The kinase assay is performed either as 384-well Flashplate assay (for e.g. Topcount measurement) or as 384-well Image-Flashplate assay (for LEADseeker measurement).
2.5 nM SYK, 400 nM Biotin-Aha-Aha-[…]
and 10 μM ATP (spiked with 0.3 μCi 33P-ATP/well) are incubated in a total volume of 50 μl (60 mM Hepes, 10 mM MgCl2, 1.2 mM Dithiothreitol, 0.02% Brij35, 0.1% BSA, pH 7.5) with or without test compound for 1 hours at 30° C. The reaction is stopped with 25 μl 200 mM EDTA. After 30 Min at 30° C. the liquid is removed and each well washed thrice with 100 μl 0.9% sodium chloride solution. Non-specific reaction is determined in presence of 0.1 μM Staurosporine. Radioactivity is measured with Topcount (when using Flashplates) or with LEADseeker (when using Image-Flashplates) respectively. Results (e.g. IC50-values) are calculated with program tools provided by the IT-department (e.g. Symyx Assay Explorer, Genedata Screener).
Enzymatic Assays Using the Caliper LifeSciences Technology
The assays described here are performed on the Caliper Life Sciences LC3000 system This technology provides data on enzyme activity via measurement of the relative amounts of phosphorylated or unphosphorylated fluorescently labelled substrate peptide at the end of an enzymatic reaction.
These different states of peptide are resolved by applying a potential difference across the sample. The presence of the charged phosphate group on the product (as opposed to the substrate) causes a different peptide mobility between the two peptides. This is visualized by excitation of the fluorescent label on the substrate and product peptides and represented as peaks within the analysis software.
In order to measure inhibitor activity of kinase inhibitors on this technology, a TTP Mosquito liquid handling instrument is used to place 0.25 ul of the appropriate concentration of inhibitor in 100% DMSO (for a dose response curve calculation) into each well of a 384-well plate. To this reaction components are added to a final volume of 25 ul. The table below indicates the sequences and concentrations for the assays described in this report. Standard components are 1 mM DTT (Sigma, D0632), 1 mM MgCl2 (Sigma, M1028), 100 mM HEPES pH 7.5 (Calbiochem, 391338), 0.015% Brij-35 (Sigma, B4184).
The reaction is incubated for 90 min at 25 C, and then stopped by the addition of 70 ul of Stop buffer (100 mM HEPES pH 7.5, 0.015% Brij-35, 10 mM EDTA (Sigma, E7889)).
The plate is read on a Caliper LC 3000 in an Off-Chip mobility shift assay format, on a 12-sipper chip. Unphosphorylated substrate and phosphorylated product peptide resolve as separate peaks allowing direct measurement of percentage of conversion of substrate to product. The percent conversion can be plotted against concentration of inhibitor to produce a sigmoidal dose response curve, from which an IC50 can be calculated using GeneData Condoseo or a similar product.

Sequence of GCN2 (Q9P2K8 whole entry): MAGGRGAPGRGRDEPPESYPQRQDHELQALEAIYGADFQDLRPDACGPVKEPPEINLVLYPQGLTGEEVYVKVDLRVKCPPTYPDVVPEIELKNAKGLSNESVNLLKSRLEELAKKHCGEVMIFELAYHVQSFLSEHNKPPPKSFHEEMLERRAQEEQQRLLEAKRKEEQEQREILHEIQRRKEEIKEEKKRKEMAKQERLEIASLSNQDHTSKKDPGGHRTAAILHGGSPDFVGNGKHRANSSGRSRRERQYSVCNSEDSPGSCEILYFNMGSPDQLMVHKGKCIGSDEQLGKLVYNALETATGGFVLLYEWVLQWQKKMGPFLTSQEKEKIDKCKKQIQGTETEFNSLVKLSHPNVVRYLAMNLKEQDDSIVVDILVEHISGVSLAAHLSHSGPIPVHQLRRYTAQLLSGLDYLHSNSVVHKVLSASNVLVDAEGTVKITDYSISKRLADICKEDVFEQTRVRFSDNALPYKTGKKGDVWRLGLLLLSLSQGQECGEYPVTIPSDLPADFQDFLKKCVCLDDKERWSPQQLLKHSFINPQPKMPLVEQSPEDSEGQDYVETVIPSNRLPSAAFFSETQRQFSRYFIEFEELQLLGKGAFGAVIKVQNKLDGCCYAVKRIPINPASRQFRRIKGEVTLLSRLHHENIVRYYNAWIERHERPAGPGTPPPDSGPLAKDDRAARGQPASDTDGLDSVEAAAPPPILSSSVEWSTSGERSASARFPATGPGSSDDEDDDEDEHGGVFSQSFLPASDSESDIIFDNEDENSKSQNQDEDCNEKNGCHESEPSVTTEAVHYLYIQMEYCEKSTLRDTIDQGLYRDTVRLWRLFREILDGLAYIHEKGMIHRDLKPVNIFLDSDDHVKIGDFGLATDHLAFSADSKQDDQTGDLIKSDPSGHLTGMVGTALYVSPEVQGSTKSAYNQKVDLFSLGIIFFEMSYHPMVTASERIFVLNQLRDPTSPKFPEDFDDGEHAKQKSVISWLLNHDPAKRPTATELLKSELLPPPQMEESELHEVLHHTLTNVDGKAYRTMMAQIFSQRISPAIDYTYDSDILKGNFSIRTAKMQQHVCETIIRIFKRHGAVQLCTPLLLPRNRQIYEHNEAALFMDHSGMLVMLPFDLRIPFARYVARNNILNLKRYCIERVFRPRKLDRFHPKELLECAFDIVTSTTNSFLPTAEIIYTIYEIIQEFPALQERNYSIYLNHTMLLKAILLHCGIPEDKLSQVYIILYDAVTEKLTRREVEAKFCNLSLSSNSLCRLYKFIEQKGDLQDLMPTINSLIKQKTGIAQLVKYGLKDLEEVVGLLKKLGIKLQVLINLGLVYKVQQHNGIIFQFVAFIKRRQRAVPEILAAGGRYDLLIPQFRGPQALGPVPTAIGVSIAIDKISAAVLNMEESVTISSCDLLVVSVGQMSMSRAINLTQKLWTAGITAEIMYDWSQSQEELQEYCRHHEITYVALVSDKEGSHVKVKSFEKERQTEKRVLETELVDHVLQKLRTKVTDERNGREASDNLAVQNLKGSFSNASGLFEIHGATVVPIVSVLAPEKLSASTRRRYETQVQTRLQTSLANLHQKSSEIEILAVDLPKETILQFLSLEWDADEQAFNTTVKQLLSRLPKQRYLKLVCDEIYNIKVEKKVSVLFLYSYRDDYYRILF

Row | Compound | IC50 (GCN2) | IC50 (SYK) | SYK (enzyme assay) % at 3 μM (SYK) | GCN2 (enzyme assay) % at 10 μM (GCN2)
1 | Cn1cc(-c2cncc3nc(Nc4ccc5c(c4)NC(=O)C5(C)C)nn23)cn1 [Compound A13, 3,3-dimethyl-6-[5-(1-methyl-1H-pyrazol-4-yl)-[1,2,4]triazolo[1,5-a]pyrazin-2-ylamino]-1,3-dihydro-indol-2-one] | < 1000 nM | < 1000 nM | – | –
2 | CN(C)Cc1nc2cc(Nc3nc4cncc(-c5cnn(C)c5)n4n3)ccc2[nH]1 [Compound A14] | < 1000 nM | 1000 to 5000 nM | – | –
3 | O=C1Cc2cc(Nc3nc4cncc(-c5ccc(N6CCOCC6)cc5)n4n3)ccc2N1 [Compound A15, 5-[5-(4-morpholin-4-yl-phenyl)-[1,2,4]triazolo[1,5-a]pyrazin-2-ylamino]-1,3-dihydro-indol-2-one] | < 1000 nM | 1000 to 5000 nM | – | –
4 | c1cncc(Nc2nc3cncc(-c4ccc(N5CCOCC5)cc4)n3n2)c1 [Compound A16, [5-(4-morpholin-4-yl-phenyl)-[1,2,4]triazolo[1,5-a]pyrazin-2-yl]-pyridin-3-yl-amine] | < 1000 nM | – | 1.5@3% | –
5 | Cc1cc(Nc2nc3cncc(-c4ccc(N5CCOCC5)cc4)n3n2)ccc1N1CCN(C)CC1 [Compound A17, [3-methyl-4-(4-methyl-piperazin-1-yl)-phenyl]-[5-(4-morpholin-4-yl-phenyl)-[1,2,4]triazolo[1,5-a]pyrazin-2-yl]-amine] | < 1000 nM | 1000 to 5000 nM | – | –
6 | Clc1cn2nc(Nc3cccnc3)nc2cn1 [Compound A20] | 1000 to 5000 nM | – | 1@3% | –
7 | COc1cccc(Nc2nc3cnc(Br)cn3n2)c1 [Compound A22] | < 1000 nM | – | −15@3% | –
8 | c1cncc(Nc2nc3cnc(-c4cccnc4)cn3n2)c1 [Compound A25, pyridin-3-yl-(6-pyridin-3-yl-[1,2,4]triazolo[1,5-a]pyrazin-2-yl]-amine] | 1000 to 5000 nM | – | −8@3% | –
9 | Fc1ccc(-c2cncc3nc(Nc4cccnc4)nn23)cc1 [Compound A27, [5-(4-fluoro-phenyl)-[1,2,4]triazolo[1,5-a]pyrazin-2-yl]-pyridin-3-yl-amine] | 1000 to 5000 nM | – | −6@3% | –
10 | COc1cccc(Nc2nc3cncc(-c4ccccc4)n3n2)c1 [Compound A28] | < 1000 nM | – | −2@3% | –
11 | COc1cccc(Nc2nc3cncc(-c4cnn(C)c4)n3n2)c1 [Compound A30] | < 1000 nM | – | −33@3% | –
12 | c1cc(N2CCOCC2)ccc1Nc1nc2cncc(-c3cn[nH]c3)n2n1 [Compound A31, (4-morpholin-4-yl-phenyl)-[5-(1H-pyrazol-4-yl)-[1,2,4]triazolo[1,5-a]pyrazin-2-yl]-amine] | 1000 to 5000 nM | < 1000 nM | – | –
13 | c1ccc2ncc(-c3cncc4nc(Nc5ccc(N6CCOCC6)cc5)nn34)cc2c1 [Compound A32, (4-morpholin-4-yl-phenyl)-(5-quinolin-3-yl-[1,2,4]triazolo[1,5-a]pyrazin-2-yl)-amine] | 1000 to 5000 nM | – | −35@3% | –

Other lines, results leading:

Row | IC50 (GCN2) | IC50 (SYK) | SYK (enzyme assay) % at 3 μM (SYK) | GCN2 (enzyme assay) % at 10 μM (GCN2) | Compound
14 | 1000 to 5000 nM | 1000 to 5000 nM | – | – | CC(C)(C#N)c1ccc(-c2cncc3nc(Nc4ccc(N5CCOCC5)cc4)nn23)cc1 [Compound A34, 2-Methyl-2-{4-[2-(4-morpholin-4-yl-phenylamino)-[1,2,4]triazolo[1,5-a]pyrazin-5-yl]-phenyl}-propionitrile]
15 | < 1000 nM | < 1000 nM | – | – | Cn1cc(-c2cncc3nc(Nc4ccc(N5CCOCC5)cc4)nn23)cn1 [Compound A35, [5-(1-methyl-1H-pyrazol-4-yl)-[1,2,4]triazolo[1,5-a]pyrazin-2-yl]-(4-morpholin-4-yl-phenyl)-amine]
16 | – | 1000 to 5000 nM | – | −4@10% | c1ccc(-c2ccccc2-c2cncc3nc(Nc4ccc(N5CCOCC5)cc4)nn23)cc1 [Compound A36, (5-biphenyl-2-yl-[1,2,4]triazolo[1,5-a]pyrazin-2-yl)-(4-morpholin-4-yl-phenyl)-amine]
17 | – | 1000 to 5000 nM | – | 3@10% | COc1cc(Nc2nc3cncc(-c4ccccc4-c4ccccc4)n3n2)cc(OC)c1 [Compound A37]
18 | 5000 to 10000 nM | 1000 to 5000 nM | – | – | Cc1ncc2nc(Nc3ccc(N4CCOCC4)cc3)nn2c1-c1cnn(C)c1 [Compound A44, [6-methyl-5-(1-methyl-1H-pyrazol-4-yl)-[1,2,4]triazolo[1,5-a]pyrazin-2-yl]-(4-morpholin-4-yl-phenyl)-amine]
19 | – | < 1000 nM | – | 2@10% | Cn1cc(-c2c(-c3ccccc3)ncc3nc(Nc4ccc(N5CCOCC5)cc4)nn23)cn1 [Compound A45, [5-(1-methyl-1H-pyrazol-4-yl)-6-phenyl-[1,2,4]triazolo[1,5-a]pyrazin-2-yl]-(4-morpholin-4-yl-phenyl)-amine]
20 | – | 1000 to 5000 nM | – | −8@10% | Cn1cc(-c2ncc3nc(Nc4ccc(N5CCOCC5)cc4)nn3c2-c2cnn(C)c2)cn1 [Compound A46, [5,6-Bis-(1-methyl-1H-pyrazol-4-yl)-[1,2,4]triazolo[1,5-a]pyrazin-2-yl]-(4-morpholin-4-yl-phenyl)-amine]
21 | < 1000 nM | < 1000 nM | – | – | Cn1cc(-c2cncc3nc(Nc4ccc(C5(C#N)CC5)cc4)nn23)cn1 [Compound A47, 1-{4-[5-(1-methyl-1H-pyrazol-4-yl)-[1,2,4]triazolo[1,5-a]pyrazin-2-ylamino]-phenyl}-cyclopropanecarbonitrile]
22 | < 1000 nM | 5000 to 10000 nM | – | – | CN1CCN(c2ccc(Nc3nc4cncc(-c5cnn(CCN6CCOCC6)c5)n4n3)cc2)CC1 [Compound A48, [4-(4-methyl-piperazin-1-yl)-phenyl]-{5-[1-(2-morpholin-4-yl-ethyl)-1H-pyrazol-4-yl]-[1,2,4]triazolo[1,5-a]pyrazin-2-yl}-amine]
23 | 1000 to 5000 nM | – | −19@3% | – | O=C1Cc2cc(Nc3nc4cncc(-c5cnn(CCN6CCOCC6)c5)n4n3)ccc2N1 [Compound A49, 5-{5-[1-(2-morpholin-4-yl-ethyl)-1H-pyrazol-4-yl]-[1,2,4]triazolo[1,5-a]pyrazin-2-ylamino}-1,3-dihydro-indol-2-one]
24 | < 1000 nM | – | −32@3% | – | Cc1cc(Nc2nc3cncc(-c4cnn(CCN5CCOCC5)c4)n3n2)ccc1N1CCN(C)CC1 [Compound A50, [3-methyl-4-(4-methyl-piperazin-1-yl)-phenyl]-{5-[1-(2-morpholin-4-yl-ethyl)-1H-pyrazol-4-yl]-[1,2,4]triazolo[1,5-a]pyrazin-2-yl}-amine]
25 | < 1000 nM | < 1000 nM | – | – | Cc1cc(Nc2nc3cncc(-c4cnn(CCC(C)C)c4)n3n2)ccc1N1CCN(C)CC1 [Compound A51, {5-[1-(3-methyl-butyl)-1H-pyrazol-4-yl]-[1,2,4]triazolo[1,5-a]pyrazin-2-yl}-[3-methyl-4-(4-methyl-piperazin-1-yl)-phenyl]-amine]
26 | 1000 to 5000 nM | – | −32@3% | – | CN1C(=O)Cc2cc(Nc3nc4cncc(-c5cnn(CCN6CCOCC6)c5)n4n3)ccc21 [Compound A52, 1-methyl-5-{5-[1-(2-morpholin-4-yl-ethyl)-1H-pyrazol-4-yl]-[1,2,4]triazolo[1,5-a]pyrazin-2-ylamino}-1,3-dihydro-indol-2-one]
